# Results from the supplement of paper PMC7017272.
# ± gives the standard deviation of the averaged measurements.
# Assays:
# Settings in all cases: treatment time: 3 days
# UT-SCC-106A [1] = test: maximal % inhibition of viability relative to DMSO; higher = stronger effect
# Summary of the method: (§1)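 HPV-negative HNSCC cell lines were plated at 500 cells/well in 384-well plates, either on plastic, on wells coated with Matrigel or Myogel (500 µg/mL), or embedded in Matrigel or Myogel plus rat collagen I. Each compound was tested at five 10-fold concentrations over 3 days. Viability was measured by CellTiter-Glo 2.0 luminescence, and IC50, maximal inhibition and drug sensitivity score came from percent-inhibition dose–response curves fitted in the FIMM pipeline after normalisation to vehicle (0.1% DMSO) and cell-killing control wells.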
# UT-SCC-40 [2] = test: as above
# Summary of the method: as §1
# UT-SCC-42A [3] = test: as above
# Summary of the method: as §1
# UT-SCC-28 [4] = test: as above
# Summary of the method: as §1
# UT-SCC-73 [5] = test: as above
# Summary of the method: as §1
# UT-SCC-44 [6] = test: as above
# Summary of the method: as §1
# UT-SCC-24B [7] = test: as above
# Summary of the method: as §1
# UT-SCC-8 [8] = test: as above
# Summary of the method: as §1
# UT-SCC-106A [9] = test: relative IC50 (midpoint of the fitted curve; maximal inhibition may be below 50%); higher = less potent
# Summary of the method: as §1
# UT-SCC-14 = test: as above
# Summary of the method: as §1
# UT-SCC-40 [10] = test: as above
# Summary of the method: as §1
# UT-SCC-42A [11] = test: as above
# Summary of the method: as §1
# UT-SCC-42B = test: as above
# Summary of the method: as §1
# UT-SCC-81 = test: as above
# Summary of the method: as §1
# UT-SCC-28 [12] = test: as above
# Summary of the method: as §1
# UT-SCC-73 [13] = test: as above
# Summary of the method: as §1
# UT-SCC-44 [14] = test: as above
# Summary of the method: as §1
# UT-SCC-24B [15] = test: as above
# Summary of the method: as §1
# UT-SCC-8 [16] = test: as above
# Summary of the method: as §1
# [17] = culture condition: embedded in Matrigel
# [18] = culture condition: embedded in Myogel + collagen I
# [19] = culture condition: on top of Matrigel
# [20] = culture condition: on top of Myogel
# [21] = culture condition: plastic 2D (no matrix)
structure (smiles),measurement,setting,value
Cc1c(CN2CCN(C(=O)[C@H](C)O)CC2)sc2c(N3CCOCC3)nc(-c3cnc(N)nc3)nc12 [Apitolisib],maximal % inhibition of viability,UT-SCC-106A [1]; [17],69.8 ± 1.9%
same,maximal % inhibition of viability,UT-SCC-106A [1]; [18],60.4 ± 6.1%
same,maximal % inhibition of viability,UT-SCC-106A [1]; [19],74.7 ± 0.85%
same,maximal % inhibition of viability,UT-SCC-106A [1]; [20],66 ± 4%
same,maximal % inhibition of viability,UT-SCC-106A [1]; [21],81.2 ± 5%
same,maximal % inhibition of viability,UT-SCC-40 [2]; [17],89.1 ± 2.1%
same,maximal % inhibition of viability,UT-SCC-40 [2]; [18],78.6 ± 1.7%
same,maximal % inhibition of viability,UT-SCC-40 [2]; [19],87.3 ± 1.2%
same,maximal % inhibition of viability,UT-SCC-40 [2]; [20],64 ± 9.4%
same,maximal % inhibition of viability,UT-SCC-40 [2]; [21],74.7 ± 2.4%
same,maximal % inhibition of viability,UT-SCC-42A [3]; [17],79.9 ± 3.6%
same,maximal % inhibition of viability,UT-SCC-42A [3]; [18],75.8 ± 1.8%
same,maximal % inhibition of viability,UT-SCC-42A [3]; [19],80.1 ± 2.3%
same,maximal % inhibition of viability,UT-SCC-42A [3]; [20],75.2 ± 1.4%
same,maximal % inhibition of viability,UT-SCC-42A [3]; [21],81 ± 1.5%
same,maximal % inhibition of viability,UT-SCC-28 [4]; [17],63.5 ± 2.3%
same,maximal % inhibition of viability,UT-SCC-28 [4]; [18],76.8 ± 4.2%
same,maximal % inhibition of viability,UT-SCC-28 [4]; [19],69.97 ± 0.67%
same,maximal % inhibition of viability,UT-SCC-28 [4]; [21],68.4 ± 2.8%
same,maximal % inhibition of viability,UT-SCC-73 [5]; [17],84.2 ± 2.6%
same,maximal % inhibition of viability,UT-SCC-73 [5]; [18],76.2 ± 4.4%
same,maximal % inhibition of viability,UT-SCC-73 [5]; [19],82.4 ± 0.53%
same,maximal % inhibition of viability,UT-SCC-73 [5]; [20],79.5 ± 2.6%
same,maximal % inhibition of viability,UT-SCC-73 [5]; [21],81.8 ± 2.3%
same,maximal % inhibition of viability,UT-SCC-44 [6]; [17],57.8 ± 1.6%
same,maximal % inhibition of viability,UT-SCC-44 [6]; [18],65.8 ± 3.9%
same,maximal % inhibition of viability,UT-SCC-44 [6]; [19],58.2 ± 1.4%
same,maximal % inhibition of viability,UT-SCC-44 [6]; [20],65.9 ± 2%
same,maximal % inhibition of viability,UT-SCC-44 [6]; [21],63.5 ± 5%
same,maximal % inhibition of viability,UT-SCC-24B [7]; [17],91.37 ± 0.75%
same,maximal % inhibition of viability,UT-SCC-24B [7]; [18],92.1 ± 2.7%
same,maximal % inhibition of viability,UT-SCC-24B [7]; [19],90.4 ± 1.1%
same,maximal % inhibition of viability,UT-SCC-24B [7]; [20],90.53 ± 0.42%
same,maximal % inhibition of viability,UT-SCC-24B [7]; [21],92.97 ± 0.47%
same,maximal % inhibition of viability,UT-SCC-8 [8]; [17],97.57 ± 0.12%
same,maximal % inhibition of viability,UT-SCC-8 [8]; [18],87.6 ± 4.4%
same,maximal % inhibition of viability,UT-SCC-8 [8]; [19],94.8 ± 1.1%
same,maximal % inhibition of viability,UT-SCC-8 [8]; [20],90.4 ± 1.6%
same,maximal % inhibition of viability,UT-SCC-8 [8]; [21],94 ± 1.2%
same,relative IC50,UT-SCC-106A [9]; [17],336 nM
same,relative IC50,UT-SCC-106A [9]; [18],862 nM
same,relative IC50,UT-SCC-106A [9]; [19],488 nM
same,relative IC50,UT-SCC-106A [9]; [20],1470 nM
same,relative IC50,UT-SCC-106A [9]; [21],936 nM
same,relative IC50,UT-SCC-14; [17],1210 nM
same,relative IC50,UT-SCC-14; [18],1810 nM
same,relative IC50,UT-SCC-14; [19],1510 nM
same,relative IC50,UT-SCC-14; [20],1930 nM
same,relative IC50,UT-SCC-14; [21],2000 nM
same,relative IC50,UT-SCC-40 [10]; [17],1240 nM
same,relative IC50,UT-SCC-40 [10]; [18],1560 nM
same,relative IC50,UT-SCC-40 [10]; [19],1520 nM
same,relative IC50,UT-SCC-40 [10]; [20],1870 nM
same,relative IC50,UT-SCC-40 [10]; [21],1820 nM
same,relative IC50,UT-SCC-42A [11]; [17],1510 nM
same,relative IC50,UT-SCC-42A [11]; [18],1110 nM
same,relative IC50,UT-SCC-42A [11]; [19],1320 nM
same,relative IC50,UT-SCC-42A [11]; [20],1410 nM
same,relative IC50,UT-SCC-42A [11]; [21],1090 nM
same,relative IC50,UT-SCC-42B; [17],1900 nM
same,relative IC50,UT-SCC-42B; [19],2320 nM
same,relative IC50,UT-SCC-42B; [20],2160 nM
same,relative IC50,UT-SCC-42B; [21],2390 nM
same,relative IC50,UT-SCC-81; [17],396 nM
same,relative IC50,UT-SCC-81; [18],748 nM
same,relative IC50,UT-SCC-81; [19],1300 nM
same,relative IC50,UT-SCC-81; [20],1040 nM
same,relative IC50,UT-SCC-81; [21],1140 nM
same,relative IC50,UT-SCC-28 [12]; [17],330 nM
same,relative IC50,UT-SCC-28 [12]; [18],1050 nM
same,relative IC50,UT-SCC-28 [12]; [19],244 nM
same,relative IC50,UT-SCC-28 [12]; [21],352 nM
same,relative IC50,UT-SCC-73 [13]; [17],1110 nM
same,relative IC50,UT-SCC-73 [13]; [18],1170 nM
same,relative IC50,UT-SCC-73 [13]; [19],1450 nM
same,relative IC50,UT-SCC-73 [13]; [20],1540 nM
same,relative IC50,UT-SCC-73 [13]; [21],1670 nM
same,relative IC50,UT-SCC-44 [14]; [17],279 nM
same,relative IC50,UT-SCC-44 [14]; [18],1450 nM
same,relative IC50,UT-SCC-44 [14]; [19],452 nM
same,relative IC50,UT-SCC-44 [14]; [21],1130 nM
same,relative IC50,UT-SCC-24B [15]; [17],891 nM
same,relative IC50,UT-SCC-24B [15]; [18],736 nM
same,relative IC50,UT-SCC-24B [15]; [19],874 nM
same,relative IC50,UT-SCC-24B [15]; [20],1150 nM
same,relative IC50,UT-SCC-24B [15]; [21],850 nM
same,relative IC50,UT-SCC-8 [16]; [17],1330 nM
same,relative IC50,UT-SCC-8 [16]; [18],2370 nM
same,relative IC50,UT-SCC-8 [16]; [19],1380 nM
same,relative IC50,UT-SCC-8 [16]; [20],1280 nM
same,relative IC50,UT-SCC-8 [16]; [21],1410 nM
